Source: ChEMBL document CHEMBL1201862, “PubChem BioAssay data set” (2004)
Calls of active or inactive are those of the source.

Experiments:
cells = format: functional, cell-based
Exodeoxyribonuclease V = molecular target: T1, Exodeoxyribonuclease V (Escherichia coli (strain K12), UniProt P04993+P07648+P08394); experiment: RecBCD inhibition via phage-restricted bacterial growth – absorbance, V66 E. coli, mutant T4 phage, counter-screen for AddAB inhibitor project, dose response (AID 492957); format: functional, cell-based, Escherichia coli str. K-12 substr. MG1655
T1 sequence (P04993 whole entry): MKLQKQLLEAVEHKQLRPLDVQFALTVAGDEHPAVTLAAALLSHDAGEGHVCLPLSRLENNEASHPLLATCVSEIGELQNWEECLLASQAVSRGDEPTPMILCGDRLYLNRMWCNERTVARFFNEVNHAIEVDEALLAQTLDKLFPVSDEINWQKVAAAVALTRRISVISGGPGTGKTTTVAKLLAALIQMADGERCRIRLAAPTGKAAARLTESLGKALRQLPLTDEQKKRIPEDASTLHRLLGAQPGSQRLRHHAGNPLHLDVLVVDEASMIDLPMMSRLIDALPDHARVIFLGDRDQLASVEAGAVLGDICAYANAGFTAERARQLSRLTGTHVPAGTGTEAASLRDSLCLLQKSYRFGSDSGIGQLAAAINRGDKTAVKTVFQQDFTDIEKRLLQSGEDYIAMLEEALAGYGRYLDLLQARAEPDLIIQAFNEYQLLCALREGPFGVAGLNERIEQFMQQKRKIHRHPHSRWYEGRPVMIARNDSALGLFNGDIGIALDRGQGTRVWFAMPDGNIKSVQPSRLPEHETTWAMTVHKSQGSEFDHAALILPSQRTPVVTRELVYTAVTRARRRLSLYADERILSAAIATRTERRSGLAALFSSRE
T1 sequence (P07648 whole entry): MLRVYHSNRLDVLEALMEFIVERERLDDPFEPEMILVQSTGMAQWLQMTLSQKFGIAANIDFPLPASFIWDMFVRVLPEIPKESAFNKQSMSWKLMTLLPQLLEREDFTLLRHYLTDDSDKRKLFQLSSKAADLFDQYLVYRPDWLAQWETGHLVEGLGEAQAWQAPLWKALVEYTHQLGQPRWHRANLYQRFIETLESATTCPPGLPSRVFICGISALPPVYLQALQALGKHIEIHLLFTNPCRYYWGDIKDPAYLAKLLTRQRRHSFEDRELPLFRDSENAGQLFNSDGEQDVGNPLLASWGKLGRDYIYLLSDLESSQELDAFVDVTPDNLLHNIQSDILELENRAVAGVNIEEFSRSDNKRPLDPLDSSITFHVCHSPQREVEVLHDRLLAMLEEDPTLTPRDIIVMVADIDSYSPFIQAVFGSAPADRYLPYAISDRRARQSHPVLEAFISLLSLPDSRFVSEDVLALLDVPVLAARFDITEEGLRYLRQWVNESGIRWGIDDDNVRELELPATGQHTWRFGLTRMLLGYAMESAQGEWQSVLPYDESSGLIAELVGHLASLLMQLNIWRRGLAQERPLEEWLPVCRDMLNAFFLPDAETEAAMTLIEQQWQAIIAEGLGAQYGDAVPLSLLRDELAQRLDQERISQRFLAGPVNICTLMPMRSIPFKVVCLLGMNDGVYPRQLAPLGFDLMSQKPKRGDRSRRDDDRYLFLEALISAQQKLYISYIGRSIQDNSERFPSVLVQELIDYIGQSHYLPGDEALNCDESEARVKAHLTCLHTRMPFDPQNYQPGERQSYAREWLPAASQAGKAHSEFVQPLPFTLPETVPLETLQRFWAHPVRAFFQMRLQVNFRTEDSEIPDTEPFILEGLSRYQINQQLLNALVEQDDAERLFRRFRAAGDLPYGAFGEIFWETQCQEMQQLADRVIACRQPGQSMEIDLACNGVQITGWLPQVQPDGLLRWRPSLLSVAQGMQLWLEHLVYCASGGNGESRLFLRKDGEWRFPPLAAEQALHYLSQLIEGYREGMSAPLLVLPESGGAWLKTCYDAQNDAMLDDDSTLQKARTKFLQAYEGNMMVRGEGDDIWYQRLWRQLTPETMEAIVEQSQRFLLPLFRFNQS
T1 sequence (P08394 whole entry): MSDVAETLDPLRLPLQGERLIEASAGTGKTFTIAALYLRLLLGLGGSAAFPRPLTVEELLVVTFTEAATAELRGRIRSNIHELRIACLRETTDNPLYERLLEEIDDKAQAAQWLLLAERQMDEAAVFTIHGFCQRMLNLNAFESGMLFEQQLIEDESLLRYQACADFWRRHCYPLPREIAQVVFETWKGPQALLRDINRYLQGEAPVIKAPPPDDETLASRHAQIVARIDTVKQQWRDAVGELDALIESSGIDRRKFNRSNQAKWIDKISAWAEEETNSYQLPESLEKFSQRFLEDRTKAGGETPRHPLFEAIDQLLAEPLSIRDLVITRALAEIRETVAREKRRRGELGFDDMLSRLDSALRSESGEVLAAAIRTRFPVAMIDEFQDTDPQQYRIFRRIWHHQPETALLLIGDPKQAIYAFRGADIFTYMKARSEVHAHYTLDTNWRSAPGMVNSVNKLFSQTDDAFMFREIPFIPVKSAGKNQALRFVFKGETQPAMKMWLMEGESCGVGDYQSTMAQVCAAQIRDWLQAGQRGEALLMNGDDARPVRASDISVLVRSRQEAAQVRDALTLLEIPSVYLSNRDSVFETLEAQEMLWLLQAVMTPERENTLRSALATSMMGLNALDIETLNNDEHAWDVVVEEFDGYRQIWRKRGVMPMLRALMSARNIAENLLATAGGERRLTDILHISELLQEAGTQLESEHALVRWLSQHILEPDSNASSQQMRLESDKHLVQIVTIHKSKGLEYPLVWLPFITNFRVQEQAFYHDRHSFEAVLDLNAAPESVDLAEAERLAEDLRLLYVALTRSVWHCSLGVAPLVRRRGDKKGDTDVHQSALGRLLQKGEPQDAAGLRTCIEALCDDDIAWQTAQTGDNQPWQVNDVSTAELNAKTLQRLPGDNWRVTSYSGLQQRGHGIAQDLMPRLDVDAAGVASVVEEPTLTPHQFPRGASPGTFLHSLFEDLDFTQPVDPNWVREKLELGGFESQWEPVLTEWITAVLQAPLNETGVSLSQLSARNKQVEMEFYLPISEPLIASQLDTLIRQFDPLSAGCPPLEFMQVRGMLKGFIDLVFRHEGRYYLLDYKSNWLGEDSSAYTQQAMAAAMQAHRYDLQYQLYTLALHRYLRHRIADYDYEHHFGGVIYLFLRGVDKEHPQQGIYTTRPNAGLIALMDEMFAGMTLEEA

Ephrin type-A receptor 2 = Ephrin type-A receptor 2 (Homo sapiens, UniProt P29317); format: functional;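 further: EPHA2 tested as one member of a kinome-wide kinase panel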
[1] = molecular target: MAP/microtubule affinity-regulating kinase 3 (Homo sapiens, UniProt P27448); format: functional;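 further: MARK3 affinity measured as one member of a kinome panel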
[2] = molecular target: RAC-gamma serine/threonine-protein kinase (Homo sapiens, UniProt Q9Y243); format: functional
[3] = molecular target: MAP kinase-activated protein kinase 3 (Homo sapiens, UniProt Q16644); format: functional;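 further: value comes from a kinome-wide profiling panel in which MAPKAPK3 is one of the panel members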
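Wherever EC50 is given: proteasome chymotrypsin-like activity measured in U2OS cells; potency is for inhibition of proteasome activity.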

Sequence of MAP kinase-activated protein kinase 3 (Q16644 whole entry): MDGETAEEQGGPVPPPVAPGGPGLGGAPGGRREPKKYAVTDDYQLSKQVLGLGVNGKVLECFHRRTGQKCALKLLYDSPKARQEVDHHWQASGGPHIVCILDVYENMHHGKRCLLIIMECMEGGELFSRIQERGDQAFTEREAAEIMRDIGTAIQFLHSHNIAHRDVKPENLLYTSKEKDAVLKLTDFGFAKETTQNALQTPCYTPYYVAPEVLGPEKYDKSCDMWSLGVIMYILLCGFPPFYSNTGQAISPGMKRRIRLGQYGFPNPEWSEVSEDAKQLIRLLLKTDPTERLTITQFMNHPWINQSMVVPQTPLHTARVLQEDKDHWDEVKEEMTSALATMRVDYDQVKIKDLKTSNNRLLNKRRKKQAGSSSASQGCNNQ
Sequence of RAC-gamma serine/threonine-protein kinase (Q9Y243 whole entry): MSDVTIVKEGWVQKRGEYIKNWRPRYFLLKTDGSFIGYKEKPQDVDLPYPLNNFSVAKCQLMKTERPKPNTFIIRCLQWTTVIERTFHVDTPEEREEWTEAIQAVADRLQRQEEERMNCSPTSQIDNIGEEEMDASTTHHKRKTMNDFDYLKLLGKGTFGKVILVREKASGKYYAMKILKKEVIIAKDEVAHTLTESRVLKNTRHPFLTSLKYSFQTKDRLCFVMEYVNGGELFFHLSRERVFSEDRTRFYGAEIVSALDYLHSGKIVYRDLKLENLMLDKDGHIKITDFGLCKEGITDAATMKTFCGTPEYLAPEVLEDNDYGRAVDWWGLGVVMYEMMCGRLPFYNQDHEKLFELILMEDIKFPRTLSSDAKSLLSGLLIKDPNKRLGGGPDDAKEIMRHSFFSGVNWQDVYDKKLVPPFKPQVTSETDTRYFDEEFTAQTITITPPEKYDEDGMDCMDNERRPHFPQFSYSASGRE
Sequence of MAP/microtubule affinity-regulating kinase 3 (P27448 whole entry): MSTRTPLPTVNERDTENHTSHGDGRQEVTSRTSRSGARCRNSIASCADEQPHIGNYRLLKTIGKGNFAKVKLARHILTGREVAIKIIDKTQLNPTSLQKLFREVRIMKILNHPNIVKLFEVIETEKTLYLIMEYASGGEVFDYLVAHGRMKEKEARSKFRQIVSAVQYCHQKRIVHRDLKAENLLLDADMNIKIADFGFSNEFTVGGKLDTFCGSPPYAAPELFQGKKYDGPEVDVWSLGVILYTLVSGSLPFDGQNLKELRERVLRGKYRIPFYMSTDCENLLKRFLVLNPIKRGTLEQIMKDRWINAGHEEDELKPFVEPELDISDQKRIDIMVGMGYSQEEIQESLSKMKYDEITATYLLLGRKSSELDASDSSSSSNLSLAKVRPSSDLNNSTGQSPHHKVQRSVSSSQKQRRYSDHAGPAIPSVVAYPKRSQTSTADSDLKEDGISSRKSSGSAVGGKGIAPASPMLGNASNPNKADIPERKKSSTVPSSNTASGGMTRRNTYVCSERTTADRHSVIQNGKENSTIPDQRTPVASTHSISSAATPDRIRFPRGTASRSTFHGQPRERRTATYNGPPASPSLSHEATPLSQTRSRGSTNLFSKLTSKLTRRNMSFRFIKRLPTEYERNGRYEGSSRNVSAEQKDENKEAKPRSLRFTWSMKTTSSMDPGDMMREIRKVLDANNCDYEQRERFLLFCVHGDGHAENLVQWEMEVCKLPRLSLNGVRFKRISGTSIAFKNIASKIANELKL
Sequence of Ephrin type-A receptor 2 (P29317 whole entry): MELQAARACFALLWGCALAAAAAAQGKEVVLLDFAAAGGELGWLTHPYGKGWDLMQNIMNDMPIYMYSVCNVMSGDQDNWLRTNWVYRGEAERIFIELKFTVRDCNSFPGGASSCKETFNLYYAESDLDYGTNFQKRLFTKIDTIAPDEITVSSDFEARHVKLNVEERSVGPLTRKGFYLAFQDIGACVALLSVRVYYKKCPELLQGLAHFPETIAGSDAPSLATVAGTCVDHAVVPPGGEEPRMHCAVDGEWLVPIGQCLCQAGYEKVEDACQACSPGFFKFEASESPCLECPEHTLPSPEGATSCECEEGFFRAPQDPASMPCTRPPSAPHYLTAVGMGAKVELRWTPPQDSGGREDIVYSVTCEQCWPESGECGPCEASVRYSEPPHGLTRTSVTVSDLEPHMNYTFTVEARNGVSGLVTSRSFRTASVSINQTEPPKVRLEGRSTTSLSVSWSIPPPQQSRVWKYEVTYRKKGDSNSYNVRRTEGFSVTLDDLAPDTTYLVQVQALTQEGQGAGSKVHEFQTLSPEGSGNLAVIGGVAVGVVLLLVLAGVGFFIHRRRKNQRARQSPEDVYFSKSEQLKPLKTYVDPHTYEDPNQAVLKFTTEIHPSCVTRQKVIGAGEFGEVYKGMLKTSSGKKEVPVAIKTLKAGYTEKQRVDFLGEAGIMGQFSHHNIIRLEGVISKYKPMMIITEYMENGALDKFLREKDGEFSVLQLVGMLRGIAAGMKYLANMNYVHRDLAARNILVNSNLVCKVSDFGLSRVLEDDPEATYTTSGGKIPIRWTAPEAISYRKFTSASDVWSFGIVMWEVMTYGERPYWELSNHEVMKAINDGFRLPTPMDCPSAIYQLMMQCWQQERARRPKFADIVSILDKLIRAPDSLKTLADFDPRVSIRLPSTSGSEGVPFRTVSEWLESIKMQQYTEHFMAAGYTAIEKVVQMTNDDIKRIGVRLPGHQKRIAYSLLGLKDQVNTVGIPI

Compound	EC50 (cells)	IC50 (Exodeoxyribonuclease V)	Ki (Ephrin type-A receptor 2)	Ki [1]	Ki [2]	Ki [3]
Cc1cc(NC(c2ccc(Cl)cc2)c2ccc3cccnc3c2O)no1 (stereo unspecified)	> 350 µM (not active)	> 119 µM (inactive)	–	–	–	–
CS(=O)(=O)N(Cc1ccc2[nH]c(=O)c3cccn3c2c1)C1CC1	–	–	> 3.16 µM (inactive)	> 6.31 µM (inactive)	0.0794 µM (active)	0.0501 µM (active)
